Measured values as given in US20230148226A1, “COMPOSITIONS OF STABLE FORMULATIONS OF VARENICLINE SALT OR BASE FORM WITH CONTROL ON NITROSO IMPURITIES” (The Texas A&M University System, priority 2021, published 2023).

Experiment: N-Nitroso-varenicline content in individual component (LCMS)
Assay type: physicochemical
Conditions: not given
Protocol: Liquid chromatography—mass spectrometry (LCMS) method development for NVC. Ultra-pressure liquid chromatography (UPLC) was used to detect NVC in samples. An ACQUITY™ UPLC™ H-Class PLUS System was utilized with the following configuration. The needle was washed with 80:20 methanol:water and the sample temperature was 10° C. The injection volume was 25 μL and a WATERS™ Acquity UPLC BEH Phenyl 1.7 μm 2.1×100 mm column was used having a column temperature of 30° C. Mobile phase A was 0.1% formic acid in water, and mobile phase B was acetonitrile. A 0.5 mL/min flow rate was utilized. Table 1 and Table 2, shown below, illustrate gradient method parameters and LCMS method validation for NVC, respectively.
Screening excipients for varenicline. Excipients were screened to determine which excipients were promoting nitroso impurities. Varenicline and excipients were physically mixed in 1:1 weight ratio and exposed to 40° C./75% RH for 4 weeks (Table 3 and Table 4).
Molecule “7,8,9,10-tetrahydro-6,10-methano-6H-pyrazino(2,3-h)(3)benzazepinex [Varenicline Tartrate, reference compound]” has a N-Nitroso-varenicline of 0 ng.
`O.OC[C@H]1O[C@@H](O[C@H]2[C@H](O)[C@@H](O)C(O)O[C@@H]2CO)[C@H](O)[C@@H](O)[C@H]1O` (stereo partly drawn) [Lactose Monohydrate] showed a N-Nitroso-varenicline of 0 ng.
Work on Magnesium Stearate yielded a N-Nitroso-varenicline of 0 ng.

Experiment: not given
Conditions: FDA recommended limit; cited from earlier work
For `CCN(CC)N=O` [NDEA, N-nitrosodiethylamine], the “Acceptable daily intake limit (FDA)” value is given as 26.5 ng/day.
For `CC(C)N(N=O)C(C)C` [NDIPA, N-nitrosodiisopropylamine], the “Acceptable daily intake limit (FDA)” value is listed as 26.5 ng/day.
For `CN(C)N=O` [NDMA, N-nitrosodimethylamine], the “Acceptable daily intake limit (FDA)” value is listed as 96 ng/day.
In the case of `CCN(N=O)C(C)C` [NIPEA, N-nitrosoisopropylethyl amine], the “Acceptable daily intake limit (FDA)” value is listed as 26.5 ng/day.
For `CN(CCCC(=O)O)N=O` [NMBA, N-nitroso-N-methyl-4-aminobutanoic acid], the “Acceptable daily intake limit (FDA)” value is given as 96 ng/day.
In the case of `O=NN1CC2CC(C1)c1cc3nccnc3cc12` [NVC, N-nitroso-varenicline], the “Acceptable daily intake limit (FDA)” value is given as 37 ng/day.
